# Target: human SPR (Homo sapiens (Human), UniProt P35270)
# Assay: Evaluation Example 2: Measurement of human SPR inhibitory activity (seven concentrations, sepiapterin absorbance at 420 nm)
# Type: biochemical
# Conditions: Evaluation Example 2, seven concentrations 0.14 nM to 100 nM, 240 minutes at room temperature, read-out: IC50
# In short: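 Reactions ran 240 min at room temperature in 100 mM Tris-HCl pH 7.5 with 0.01% BSA. They contained tag-cleaved, E. coli-expressed full-length human SPR (diluted to 150 ng/mL), seven compound concentrations from 0.14 to 100 nM, and sepiapterin/NADPH added as a 120 μM/160 μM solution. Inhibition was calculated from sepiapterin absorbance at 420 nm.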
# Sequence of human SPR (P35270 whole entry): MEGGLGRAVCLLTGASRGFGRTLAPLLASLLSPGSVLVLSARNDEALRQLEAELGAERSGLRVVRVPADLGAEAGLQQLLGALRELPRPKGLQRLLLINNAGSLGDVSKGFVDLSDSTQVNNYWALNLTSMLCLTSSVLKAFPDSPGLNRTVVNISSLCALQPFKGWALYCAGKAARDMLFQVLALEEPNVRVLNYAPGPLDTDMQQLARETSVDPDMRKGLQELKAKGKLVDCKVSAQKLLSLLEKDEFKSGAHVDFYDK
row,Compound,IC50 [nM]
1,"Cc1nn2c(O)c(C(=O)NC3CC3)c(=O)n(CC(C)C)c2c1/C=C/C(=O)N1CCC[C@H]1c1cccnc1 [Synthesis Example 633, (S,E)-N-Cyclopropyl-7-hydroxy-4-isobutyl-2-methyl-5-oxo-3-(3-oxo-3-(2-(pyridin-3-yl)pyrrolidin-1-yl)prop-1-en-1-yl)-4,5-dihydropyrazolo[1,5-a]pyrimidine-6-carboxamide]",0.91
2,"Cc1nn2c(O)c(C(=O)NC3CC3)c(=O)n(CC(C)C)c2c1/C=C/C(=O)N1CCC[C@H]1C(F)F [Synthesis Example 634, (S,E)-N-Cyclopropyl-3-(3-(2-(difluoromethyl)pyrrolidin-1-yl)-3-oxoprop-1-en-1-yl)-7-hydroxy-4-isobutyl-2-methyl-5-oxo-4,5-dihydropyrazolo[1,5-a]pyrimidine-6-carboxamide]",1.21
3,"Cc1nn2c(O)c(C(=O)NC3CC3)c(=O)n(CC(C)C)c2c1/C=C/C(=O)N1CCC[C@@H]1c1ccccn1 [Synthesis Example 635, (R,E)-N-Cyclopropyl-7-hydroxy-4-isobutyl-2-methyl-5-oxo-3-(3-oxo-3-(2-(pyridin-2-yl)pyrrolidin-1-yl)prop-1-en-1-yl)-4,5-dihydropyrazolo[1,5-a]pyrimidine-6-carboxamide]",1.08
4,"Cc1nn2c(O)c(C(=O)NC3CC3)c(=O)n(CC(C)C)c2c1/C=C/C(=O)N(C)Cc1cnccn1 [Synthesis Example 636, (E)-N-Cyclopropyl-7-hydroxy-4-isobutyl-2-methyl-3-(3-(methyl(pyrazin-2-ylmethyl)amino)-3-oxoprop-1-en-1-yl)-5-oxo-4,5-dihydropyrazolo[1,5-a]pyrimidine-6-carboxamide]",1.47
5,"Cc1nn2c(O)c(C(=O)NC3CC3)c(=O)n(CC(C)C)c2c1/C=C/C(=O)N(C)Cc1cccnc1 [Synthesis Example 637, (E)-N-Cyclopropyl-7-hydroxy-4-isobutyl-2-methyl-3-(3-(methyl(pyridin-3-ylmethyl)amino)-3-oxoprop-1-en-1-yl)-5-oxo-4,5-dihydropyrazolo[1,5-a]pyrimidine-6-carboxamide]",0.89
6,"Cc1nn2c(O)c(C(=O)NC3CC3)c(=O)n(CC(C)C)c2c1/C=C/C(=O)N(C)Cc1ccccn1 [Synthesis Example 638, (E)-N-Cyclopropyl-7-hydroxy-4-isobutyl-2-methyl-3-(3-(methyl(pyridin-2-ylmethyl)amino)-3-oxoprop-1-en-1-yl)-5-oxo-4,5-dihydropyrazolo[1,5-a]pyrimidine-6-carboxamide]",1.05
7,"Cc1nn2c(O)c(C(=O)NC3CC3)c(=O)n(CC(C)C)c2c1/C=C/C(=O)N(C)Cc1ccn(C)n1 [Synthesis Example 639, (E)-N-Cyclopropyl-7-hydroxy-4-isobutyl-2-methyl-3-(3-(methyl((1-methyl-1H-pyrazol-3-yl)methyl)amino)-3-oxoprop-1-en-1-yl)-5-oxo-4,5-dihydropyrazolo[1,5-a]pyrimidine-6-carboxamide]",1.06
8,"CC[C@H]1CCCN1C(=O)/C=C/c1c(C)nn2c(O)c(C(=O)NC3CC3)c(=O)n(CC(C)C)c12 [Synthesis Example 640, (S,E)-N-Cyclopropyl-3-(3-(2-ethylpyrrolidin-1-yl)-3-oxoprop-1-en-1-yl)-7-hydroxy-4-isobutyl-2-methyl-5-oxo-4,5-dihydropyrazolo[1,5-a]pyrimidine-6-carboxamide]",1.16
9,"Cc1nn2c(O)c(C(=O)NC3CC3)c(=O)n(CC(C)C)c2c1/C=C/C(=O)N1[C@H](C)COC[C@@H]1C [Synthesis Example 641, N-Cyclopropyl-3-((E)-3-(cis-3,5-dimethylmorpholino)-3-oxoprop-1-en-1-yl)-7-hydroxy-4-isobutyl-2-methyl-5-oxo-4,5-dihydropyrazolo[1,5-a]pyrimidine-6-carboxamide]",0.89
10,"Cc1nn2c(O)c(C(=O)NC3CC3)c(=O)n(CC(C)C)c2c1/C=C/C(=O)N1CCOC[C@H]1c1ccccc1 [Synthesis Example 642, (R,E)-N-Cyclopropyl-7-hydroxy-4-isobutyl-2-methyl-5-oxo-3-(3-oxo-3-(3-phenylmorpholino)prop-1-en-1-yl)-4,5-dihydropyrazolo[1,5-a]pyrimidine-6-carboxamide]",0.94
11,"Cc1nn2c(O)c(C(=O)NC3CC3)c(=O)n(CC(C)C)c2c1/C=C/C(=O)N1CCOC[C@@H]1c1ccccc1 [Synthesis Example 643, (S,E)-N-Cyclopropyl-7-hydroxy-4-isobutyl-2-methyl-5-oxo-3-(3-oxo-3-(3-phenylmorpholino)prop-1-en-1-yl)-4,5-dihydropyrazolo[1,5-a]pyrimidine-6-carboxamide]",1.37
12,"Cc1nn2c(O)c(C(=O)NC3CC3)c(=O)n(CC(C)C)c2c1/C=C/C(=O)N1C[C@@H](C)OC[C@H]1C [Synthesis Example 644, N-Cyclopropyl-3-((E)-3-((2R,5R)-2,5-dimethylmorpholino)-3-oxoprop-1-en-1-yl)-7-hydroxy-4-isobutyl-2-methyl-5-oxo-4,5-dihydropyrazolo[1,5-a]pyrimidine-6-carboxamide]",0.91
13,"Cc1nn2c(O)c(C(=O)NC3CC3)c(=O)n(CC(C)C)c2c1/C=C/C(=O)N1C[C@H](C)OC[C@@H]1C [Synthesis Example 645, N-Cyclopropyl-3-((E)-3-((2S,5S)-2,5-dimethylmorpholino)-3-oxoprop-1-en-1-yl)-7-hydroxy-4-isobutyl-2-methyl-5-oxo-4,5-dihydropyrazolo[1,5-a]pyrimidine-6-carboxamide]",0.8
14,"Cc1nn2c(O)c(C(=O)NC3CC3)c(=O)n(CC(C)C)c2c1/C=C/C(=O)N1C[C@H](C)OC[C@H]1C [Synthesis Example 646, N-Cyclopropyl-3-((E)-3-((2S,5R)-2,5-dimethylmorpholino)-3-oxoprop-1-en-1-yl)-7-hydroxy-4-isobutyl-2-methyl-5-oxo-4,5-dihydropyrazolo[1,5-a]pyrimidine-6-carboxamide]",0.87
15,"Cc1nn2c(O)c(C(=O)NC3CC3)c(=O)n(CC(C)C)c2c1/C=C/C(=O)N1C[C@@H](C)OC[C@@H]1C [Synthesis Example 647, N-Cyclopropyl-3-((E)-3-((2R,5S)-2,5-dimethylmorpholino)-3-oxoprop-1-en-1-yl)-7-hydroxy-4-isobutyl-2-methyl-5-oxo-4,5-dihydropyrazolo[1,5-a]pyrimidine-6-carboxamide]",0.81
16,"Cc1nn2c(O)c(C(=O)NC3CC3)c(=O)n(CC(C)C)c2c1/C=C/C(=O)N1C[C@@H](F)[C@@H](F)C1 [Synthesis Example 648, N-Cyclopropyl-3-((E)-3-(cis-3,4-difluoropyrrolidin-1-yl)-3-oxoprop-1-en-1-yl)-7-hydroxy-4-isobutyl-2-methyl-5-oxo-4,5-dihydropyrazolo[1,5-a]pyrimidine-6-carboxamide]",0.74
17,"Cc1nn2c(O)c(C(=O)NC3CC3)c(=O)n(CC(C)C)c2c1/C=C/C(=O)N1C2CCC1CC(F)(F)C2 [Synthesis Example 650, (E)-N-Cyclopropyl-3-(3-(3,3-difluoro-8-azabicyclo[3.2.1]octan-8-yl)-3-oxoprop-1-en-1-yl)-7-hydroxy-4-isobutyl-2-methyl-5-oxo-4,5-dihydropyrazolo[1,5-a]pyrimidine-6-carboxamide]",0.95
18,"Cc1nn2c(O)c(C(=O)NC3CC3)c(=O)n(CC(C)C)c2c1/C=C/C(=O)N1CC2CCC(C1)C2(F)F [Synthesis Example 651, (E)-N-Cyclopropyl-3-(3-(8,8-difluoro-3-azabicyclo[3.2.1]octan-3-yl)-3-oxoprop-1-en-1-yl)-7-hydroxy-4-isobutyl-2-methyl-5-oxo-4,5-dihydropyrazolo[1,5-a]pyrimidine-6-carboxamide]",1.19
19,"Cc1nn2c(O)c(C(=O)NC3CC3)c(=O)n(CC(C)C)c2c1/C=C/C(=O)N1CCCC12CC2 [Synthesis Example 652, (E)-N-Cyclopropyl-7-hydroxy-4-isobutyl-2-methyl-5-oxo-3-(3-oxo-3-(4-azaspiro[2.4]heptan-4-yl)prop-1-en-1-yl)-4,5-dihydropyrazolo[1,5-a]pyrimidine-6-carboxamide]",2.18
20,"CCc1nn2c(O)c(C(=O)NC3CC3)c(=O)n(CC(C)C)c2c1/C=C/C(=O)N1CCOC[C@@H]1C [Synthesis Example 653, (S,E)-N-Cyclopropyl-2-ethyl-7-hydroxy-4-isobutyl-3-(3-(3-methylmorpholino)-3-oxoprop-1-en-1-yl)-5-oxo-4,5-dihydropyrazolo[1,5-a]pyrimidine-6-carboxamide]",0.74
21,"CCc1nn2c(O)c(C(=O)NC3CC3)c(=O)n(CC(C)C)c2c1/C=C/C(=O)N1CCC[C@@H]1C(C)(C)O [Synthesis Example 654, (R,E)-N-Cyclopropyl-2-ethyl-7-hydroxy-3-(3-(2-(2-hydroxypropan-2-yl)pyrrolidin-1-yl)-3-oxoprop-1-en-1-yl)-4-isobutyl-5-oxo-4,5-dihydropyrazolo[1,5-a]pyrimidine-6-carboxamide]",0.95
22,"Cc1nn2c(O)c(C(=O)NC3CC3)c(=O)n(CC(C)(C)C)c2c1/C=C/C(=O)N1CCC[C@@H]1C(C)(C)O [Synthesis Example 655, (R,E)-N-Cyclopropyl-7-hydroxy-3-(3-(2-(2-hydroxypropan-2-yl)pyrrolidin-1-yl)-3-oxoprop-1-en-1-yl)-2-methyl-4-neopentyl-5-oxo-4,5-dihydropyrazolo[1,5-a]pyrimidine-6-carboxamide]",1.05
23,"Cc1nn2c(O)c(C(=O)NC3CC3)c(=O)n(CC(C)C)c2c1/C=C/C(=O)N1CCOCC1(C)C [Synthesis Example 656, (E)-N-Cyclopropyl-3-(3-(3,3-dimethylmorpholino)-3-oxoprop-1-en-1-yl)-7-hydroxy-4-isobutyl-2-methyl-5-oxo-4,5-dihydropyrazolo[1,5-a]pyrimidine-6-carboxamide]",1.15

# — patent publication US20240092784A1, “CONDENSED HETEROCYCLIC COMPOUND” (NISSAN CHEMICAL CORPORATION, priority 2020, published 2024)
